Experimental data: patent US7595327B2, “Beta-sulfonamide hydroxamic acid inhibitors of tace/matrix metalloproteinase” (priority 2005, dated 2009)
Read-outs that look alike come from different tables or passages of the source.

Experiments:
[1] = target: T1, TACE (catalytic domain of the recombinant TACE protein) (Homo sapiens, UniProt P78536); assay: TACE FRET assay using TACE Cat; type: biochemical; conditions: FRET, pro-TNF-α substrate peptide; read-out: TACE IC50
T1 construct: The catalytic domain of the recombinant TACE protein was expressed and purified; made in house
Outline: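 Recombinant TACE catalytic domain (1 ug/ml) pre-incubated 10 min at room temperature with inhibitor in 50 mM Tris-HCl pH 7.4, 25 mM NaCl, 4% glycerol, 0.005% Brij 35; Abz/Dpa pro-TNF-α peptide substrate added, fluorescence (Ex 320/Em 420) followed 10 min; IC50 from initial rates by Hill fit.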

[2] = system: LPS-induced TNF-α secretion in human whole blood; assay: Human whole blood assay for LPS-induced TNF-α secretion; type: cell-based; conditions: LPS 100 ng/ml, read-out: TNF Secretion HWB IC50
Outline: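 Fresh blood from healthy volunteers pre-incubated 1 h at 37° C with compound (final DMSO <0.2%), then stimulated with 100 ng/ml LPS for 4 h or overnight at 37° C with rotation. Supernatant TNF-α measured by ELISA; percent inhibition and IC50 derived by curve fitting.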

recombinant human MMP-2 = target: T2, recombinant human MMP-2 (Homo sapiens, UniProt P08253); assay: In-vitro fluorescence assay of MMP-2 activity; type: biochemical
T2 sequence (P08253 110-660): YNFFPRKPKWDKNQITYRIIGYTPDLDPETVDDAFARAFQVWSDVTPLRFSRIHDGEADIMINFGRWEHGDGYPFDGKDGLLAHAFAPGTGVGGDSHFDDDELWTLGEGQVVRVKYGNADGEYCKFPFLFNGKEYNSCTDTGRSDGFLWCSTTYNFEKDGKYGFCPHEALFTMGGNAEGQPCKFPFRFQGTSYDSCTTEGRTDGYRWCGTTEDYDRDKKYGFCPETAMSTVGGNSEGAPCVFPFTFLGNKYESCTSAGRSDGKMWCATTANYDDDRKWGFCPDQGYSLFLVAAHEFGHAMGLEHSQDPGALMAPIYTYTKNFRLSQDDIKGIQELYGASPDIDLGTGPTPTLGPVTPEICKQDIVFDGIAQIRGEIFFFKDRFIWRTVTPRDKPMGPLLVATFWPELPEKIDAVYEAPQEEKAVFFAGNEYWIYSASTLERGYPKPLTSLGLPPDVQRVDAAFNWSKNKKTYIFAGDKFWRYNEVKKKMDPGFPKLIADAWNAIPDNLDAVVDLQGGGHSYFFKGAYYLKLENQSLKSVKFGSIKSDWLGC

MMP-13 = MMP-13 (Homo sapiens, UniProt P45452); assay: In-vitro fluorescence assay of MMP-13 activity; type: biochemical
Protocol: See Knight, C. […] […].
The method was essentially the same as for the determination of MMP-1 activity, described above, except that the final concentration of purified MMP in the assay was 0.5 nM, prepared by diluting with the assay buffer.

[3] = target: T3, recombinant human catalytic domain of MMP-1 (Homo sapiens, UniProt P03956); assay: In-vitro fluorescence assay of MMP-1 activity; type: biochemical
T3 construct: The source of enzyme in the assay was the recombinant human catalytic domain of MMP-1
T3 sequence (P03956 100-269 limits assumed): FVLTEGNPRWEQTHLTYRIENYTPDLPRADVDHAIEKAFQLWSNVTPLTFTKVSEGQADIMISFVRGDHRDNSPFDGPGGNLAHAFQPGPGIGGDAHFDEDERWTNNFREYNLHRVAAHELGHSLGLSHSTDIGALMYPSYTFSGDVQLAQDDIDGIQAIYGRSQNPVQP

[4] = system: TNF-α secretion in Raw 264.7 cells; assay: Cell-based assay for inhibition of TNF-α secretion in Raw cells; conditions: Mus musculus, RAW264.7, LPS 100 ng/ml, 4 hr
Outline: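 Confluent Raw 264.7 cells were seeded overnight, refed, and pre-incubated 1 hr with compound (0.2% final DMSO), then stimulated with LPS at 100 ng/ml final for 4 hr at 37° C. Supernatant TNF-α measured by ELISA; % inhibition and IC50 by curve fitting.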

[5] = target: T4, recombinant human catalytic domain of MMP-14 (Homo sapiens, UniProt P50281); assay: In-vitro fluorescence assay of MMP-14 activity; type: biochemical
T4 construct: 20 kDa; purchased Chemicon International, Inc. CC1041
Protocol: The results were analyzed as described for MMP-13 activity, above.

T1 sequence (P78536 223-474 limits assumed): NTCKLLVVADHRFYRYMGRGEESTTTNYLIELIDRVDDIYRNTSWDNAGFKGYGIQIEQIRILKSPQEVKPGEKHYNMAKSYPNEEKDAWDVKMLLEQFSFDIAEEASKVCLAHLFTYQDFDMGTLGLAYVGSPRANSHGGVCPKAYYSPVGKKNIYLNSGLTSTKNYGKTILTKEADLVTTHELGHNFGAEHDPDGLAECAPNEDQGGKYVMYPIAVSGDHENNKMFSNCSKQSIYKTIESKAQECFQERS

Row | SMILES | IC50 [1] | IC50 ([2]; Homo sapiens) | IC50 (recombinant human MMP-2) | IC50 (MMP-13) | IC50 [3] | IC50 [4] | IC50 [5] | IC50 [2]
1 | Cc1cc(COc2ccc(S(=O)(=O)N[C@@H]3CN(C=O)CCC3C(=O)NO)cc2)c2ccccc2n1 (mixture of isomers) [Example 34, 1-Formyl-3-[4-(2-methyl-quinolin-4-ylmethoxy)-benzenesulfonylamino]-piperidine-4-carboxylic acid hydroxyamide] | 1 nM | 500 nM | > 16700 nM | > 16700 nM | > 16700 nM | 21 nM | – | –
2 | Cc1cc(COc2ccc(S(=O)(=O)N(C)[C@@H]3[C@H]4CC[C@H](C4)[C@@H]3C(=O)NO)cc2)c2ccccc2n1 (racemic) [Example 1, exo-N-Hydroxy-3-[methyl({4-[(2-methylquinolin-4-yl)methoxy]phenyl}sulfonyl)amino]bicyclo[2.2.1]heptane-2-carboxamide] | 2 nM | 3000 nM | 6180 nM | – | – | 18 nM | > 16700 nM | –
3 | Cc1cc(COc2ccc(S(=O)(=O)N(C)C3C4CCC(C4)C3C(=O)NO)cc2)c2ccccc2n1 (single isomer, unassigned) [Example 1a, exo-N-hydroxy-3-[methyl({4-[(2-methylquinolin-4-yl)methoxy]phenyl}sulfonyl)amino]bicyclo[2.2.1]heptane-2-carboxamide] | 1.3 nM | – | 4580 nM | > 16700 nM | > 16700 nM | – | > 16700 nM | 2800 nM
4 | Cc1cc(COc2ccc(S(=O)(=O)N[C@@H]3CCC[C@]3(C)C(=O)NO)cc2)c2ccccc2n1 [Example 55, (1S,2R)-N-hydroxy-1-methyl-2-[({4-[(2-methylquinolin4-yl)methoxy]phenyl}sulfonyl)amino]cyclopentanecarboxamide] | < 0.6 nM | 5900 nM | > 16700 nM | > 16700 nM | – | 270 nM | – | –
5 | CC[C@]1(C(=O)NO)CCC[C@H]1NS(=O)(=O)c1ccc(OCc2cc(C)nc3ccccc23)cc1 [Example 56, (1S,2R)-N-hydroxy-1-ethyl-2-[({4-[(2-methylquinolin-4-yl)methoxy]phenyl}sulfonyl)amino]cyclopentanecarboxamide] | 2.3 nM | 48000 nM | > 10000 nM | > 10000 nM | – | > 1000 nM | – | –
6 | CC[C@]1(C(=O)NO)CCC[C@H]1N(C)S(=O)(=O)c1ccc(OCc2cc(C)nc3ccccc23)cc1 [Example 57, (1S,2R)-N-hydroxy-1-ethyl-2-[methyl({4-[(2-methylquinolin-4-yl)methoxy]phenyl}sulfonyl)amino]cyclopentanecarboxamide] | 9.6 nM | > 50000 nM | > 10000 nM | > 10000 nM | – | > 1000 nM | – | –

The remaining lines, values ahead:

Row | IC50 [1] | IC50 ([2]; Homo sapiens) | IC50 (recombinant human MMP-2) | IC50 (MMP-13) | IC50 [3] | IC50 [4] | IC50 [5] | IC50 [2] | SMILES
7 | 1.3 nM | 1000 nM | > 16700 nM | > 16700 nM | > 16700 nM | 202 nM | – | – | CC(=O)N1CCC(C(=O)NO)C(NS(=O)(=O)c2ccc(OCc3cc(C)nc4ccccc34)cc2)C1 (mixture of isomers) [Example 36, 1-Acetyl-3-[4-(2-methyl-quinolin-4-ylmethoxy)-benzenesulfonylamino]-piperidine-4-carboxylic acid hydroxyamide]
8 | 1.1 nM | 2200 nM | 4120 nM | 3310 nM | > 16700 nM | 10 nM | > 16700 nM | – | Cc1cc(COc2ccc(S(=O)(=O)N(C)[C@H]3[C@@H](C(=O)NO)[C@@H]4CC[C@H]3O4)cc2)c2ccccc2n1 (relative stereo) [Example 3, exo-N-Hydroxy-3-[methyl({4-[(2-methylquinolin-4-yl)methoxy]phenyl}sulfonyl)amino]-7-oxabicyclo[2.2.1]heptane-2-carboxamide]
9 | < 0.6 nM | 1600 nM | > 16700 nM | 6380 nM | > 16700 nM | 18 nM | > 16700 nM | – | Cc1cc(COc2ccc(S(=O)(=O)N[C@@H]3[C@H]4CC[C@H](C4)[C@@H]3C(=O)NO)cc2)c2ccccc2n1 (relative stereo) [Example 4, exo-N-Hydroxy-3-[({4-[(2-methylquinolin-4-yl)methoxy]phenyl}sulfonyl)amino]bicyclo[2.2.1]heptane-2-carboxamide]
10 | 43 nM | – | > 16700 nM | > 16700 nM | > 16700 nM | 250 nM | > 16700 nM | 14000 nM | Cc1cc(COc2ccc(S(=O)(=O)N(C)C3C4CCC(C4)C3C(=O)NO)cc2)c2ccccc2n1 (single isomer, unassigned) [Example 1b, exo-N-hydroxy-3-[methyl({4-[(2-methylquinolin-4-yl)methoxy]phenyl}sulfonyl)amino]bicyclo[2.2.1]heptane-2-carboxamide]
11 | 109 nM | 49000 nM | > 10000 nM | > 10000 nM | – | > 1000 nM | – | – | Cc1cc(COc2ccc(S(=O)(=O)N[C@@H]3CCNC[C@]3(O)C(=O)NO)cc2)c2ccccc2n1 [Example 59, (3R,4R)-N,3-dihydroxy-4-[({4-[(2-methylquinolin-4-yl)methoxy]phenyl}sulfonyl)amino]piperidine-3-carboxamide]
